# Measurements published in PMC7434893 (British Journal of Cancer, 2020).
# Values joined by “and” are separate entries in the source; they are usually repeats but may differ in a detail not shown here. Identical values can stand only once.
# What was measured:
# HEC-251 = assay: 8-day growth inhibition; assay type: cell-based; conditions: Endometrial, HEC-251, 8-day assay
# MV-4-11 = assay: 8-day growth inhibition; assay type: cell-based; conditions: AML, MV-4-11, 8-day assay
# U266 = assay: 8-day growth inhibition; assay type: cell-based; conditions: Myeloma, U266, 8-day assay
# MDA-MB-468 = assay: 8-day growth inhibition; assay type: cell-based; conditions: Breast, MDA-MB-468, 8-day assay
# [1] = Food-effect pharmacokinetics, expansion cohort; assay type: in vivo, human; conditions: for Cmax / AUC(0-24h) / AUC(0-inf) / AUC(0-t) / Rac / t1/2 / tmax: 600 mg; for Cmax / AUC(0-24h) / AUC(0-inf) / AUC(0-t) / Rac / t1/2: mean (SD); for tmax: median (min, max)
# Protocol: Fed patients were administered E7449 immediately after consuming a meal. Patients were then crossed over to the alternate food regimen on day 15.
# A549 = assay: 8-day growth inhibition; assay type: cell-based; conditions: NSCLC, A549, 8-day assay
# SR = assay: 8-day growth inhibition; assay type: cell-based; conditions: B cell lymphoma, 8-day assay
# KLE = assay: 8-day growth inhibition; assay type: cell-based; conditions: Endometrial, 8-day assay
# [2] = Plasma and urine pharmacokinetics, dose-escalation cohorts; assay type: in vivo, human; conditions: for AUC(0-inf) / AUC(0–24) / Ae, amount of drug dose excreted in urine / CLR / Cav,ss / Cmax / fe, fraction of dose excreted in urine / t1/2 / AUC(0-t): mean (SD); for tmax: median (min, max)
# Protocol: Blood samples were also collected immediately before the dose on day 7 of cycle 1, days 1 and 15 of cycle 2 and on day 1 of cycle 3, and beyond. All urine produced during the time intervals pre-dose, 0–2 h, 2–4 h, 4–10 h and 10–24 h following the single dose on day –2, and after multiple doses on cycle 1, day 15, was collected.
# C3A = assay: 8-day growth inhibition; assay type: cell-based; conditions: HCC, 8-day assay
# [3] = 50 mg once daily, cycle 1 day 15, steady state
# [4] = 100 mg once daily, cycle 1 day 15, steady state
# [5] = 200 mg once daily, cycle 1 day 15, steady state
# [6] = 400 mg once daily, cycle 1 day 15, steady state
# [7] = 600 mg once daily, cycle 1 day 15, steady state
# [8] = 800 mg once daily, cycle 1 day 15, steady state
smiles,measurement,setting,value
O=c1[nH]nc2c3c(cccc13)N=C(CN1Cc3ccccc3C1)N2 [E7449],IC50,HEC-251,1260 nM
same,IC50,MV-4-11,950 nM
same,IC50,U266,6700 nM
same,IC50,MDA-MB-468,2500 nM
same,Cmax,[1]; fasted (n=10),1470 (697) ng/mL
same,AUC(0-24h),[1]; fasted,5510 (1730) (n=9) ng·h/mL
same,AUC(0-inf),[1]; fasted,4480 (1850) (n=2) ng·h/mL
same,AUC(0-t),[1]; fasted,5310 (1780) (n=10) ng·h/mL
same,Rac,[1]; fasted,1.07 (0.03) (n=2)
same,t1/2,[1]; fasted,6.11 (0.74) (n=2) h
same,tmax,[1]; fasted,"2.01 (0.97, 3.00) h"
same,Cmax,[1]; fed (n=11),863 (563) ng/mL
same,AUC(0-24h),[1]; fed,6150 (3280) ng·h/mL
same,AUC(0-inf),[1]; fed,6600 (1430) (n=5) ng·h/mL
same,AUC(0-t),[1]; fed,6150 (3270) ng·h/mL
same,Rac,[1]; fed,1.08 (0.12) (n=5)
same,t1/2,[1]; fed,5.64 (3.17) (n=5) h
same,tmax,[1]; fed,"4.05 (1.07, 8.18) h"
same,Increase in AUC (0–24 h or 0-t) with a high-fat meal,[1]; 600-mg dose,~ 10% and 10%
same,Reduction in Cmax with a high-fat meal,[1]; 600-mg dose,60%
same,IC50,A549,2200 nM
same,IC50,SR,260 nM
same,IC50,KLE,2590 nM
same,AUC(0-inf),[2]; [3],634 (n = 1) ng·h/mL
same,AUC(0–24),[2]; [3],714 (193) ng·h/mL
same,"Ae, amount of drug dose excreted in urine",[2]; [3],0.19 (0.00) (n = 2) mg
same,CLR,[2]; [3],0.3 (0.01) (n = 2) L/h
same,"Cav,ss",[2]; [3],29.7 (8.03) ng/mL
same,Cmax,[2]; [3],264 (227) ng/mL
same,"fe, fraction of dose excreted in urine",[2]; [3],0.39 (0.01) (n = 2) %
same,t1/2,[2]; [3],9.04 (n = 1) h
same,tmax,[2]; [3],"1.00 (0.5, 2.00) h"
same,AUC(0-inf),"[2]; 50 mg, day –2 single dose",770 (n = 1) ng·h/mL
same,AUC(0-t),"[2]; 50 mg, day –2 single dose",603 (213) ng·h/mL
same,AUC(0–24),"[2]; 50 mg, day –2 single dose",768 (n = 1) ng·h/mL
same,"Ae, amount of drug dose excreted in urine","[2]; 50 mg, day –2 single dose",0.11 (0.06) (n = 2) mg
same,Cmax,"[2]; 50 mg, day –2 single dose",265 (99.8) ng/mL
same,"fe, fraction of dose excreted in urine","[2]; 50 mg, day –2 single dose",0.22 (0.13) (n = 2) %
same,t1/2,"[2]; 50 mg, day –2 single dose",3.42 (n = 1) h
same,tmax,"[2]; 50 mg, day –2 single dose","2.00 (0.58, 2.03) h"
same,AUC(0-inf),[2]; [4],1150 (266) ng·h/mL
same,AUC(0–24),[2]; [4],1100 (244) ng·h/mL
same,"Ae, amount of drug dose excreted in urine",[2]; [4],0.70 (n = 1) mg
same,CLR,[2]; [4],0.5 (n = 1) L/h
same,"Cav,ss",[2]; [4],45.8 (10.2) ng/mL
same,Cmax,[2]; [4],404 (175) ng/mL
same,"fe, fraction of dose excreted in urine",[2]; [4],0.70 (n = 1) %
same,t1/2,[2]; [4],8.92 (2.50) h
same,tmax,[2]; [4],"3.00 (1.00, 4.00) h"
same,AUC(0-inf),"[2]; 100 mg, day –2 single dose",895 (99.8) ng·h/mL
same,AUC(0-t),"[2]; 100 mg, day –2 single dose",879 (104) ng·h/mL
same,AUC(0–24),"[2]; 100 mg, day –2 single dose",879 (104) ng·h/mL
same,"Ae, amount of drug dose excreted in urine","[2]; 100 mg, day –2 single dose",0.47 (n = 1) mg
same,CLR,"[2]; 100 mg, day –2 single dose",0.5 (n = 1) L/h
same,Cmax,"[2]; 100 mg, day –2 single dose",284 (112) ng/mL
same,"fe, fraction of dose excreted in urine","[2]; 100 mg, day –2 single dose",0.47 (n = 1) %
same,t1/2,"[2]; 100 mg, day –2 single dose",6.35 (3.36) h
same,tmax,"[2]; 100 mg, day –2 single dose","2.05 (1.08, 3.00) h"
same,AUC(0-inf),[2]; [5],2670 (1510) (n = 2) ng·h/mL
same,AUC(0–24),[2]; [5],3690 (2230) ng·h/mL
same,"Ae, amount of drug dose excreted in urine",[2]; [5],1.11 (0.33) mg
same,CLR,[2]; [5],0.5 (0.4) L/h
same,"Cav,ss",[2]; [5],154 (93.1) ng/mL
same,Cmax,[2]; [5],1430 (1080) ng/mL
same,"fe, fraction of dose excreted in urine",[2]; [5],0.55 (0.17) %
same,t1/2,[2]; [5],9.19 (4.83) (n = 2) h
same,tmax,[2]; [5],"1.00 (1.00, 2.00) h"
same,AUC(0-inf),"[2]; 200 mg, day –2 single dose",3320 (1790) (n = 2) ng·h/mL
same,AUC(0-t),"[2]; 200 mg, day –2 single dose",3780 (1180) ng·h/mL
same,AUC(0–24),"[2]; 200 mg, day –2 single dose",3670 (1170) ng·h/mL
same,"Ae, amount of drug dose excreted in urine","[2]; 200 mg, day –2 single dose",0.70 (0.60) (n = 3) mg
same,CLR,"[2]; 200 mg, day –2 single dose",0.2 (0.15) (n = 3) L/h
same,Cmax,"[2]; 200 mg, day –2 single dose",996 (676) ng/mL
same,"fe, fraction of dose excreted in urine","[2]; 200 mg, day –2 single dose",0.34 (0.29) (n = 3) %
same,t1/2,"[2]; 200 mg, day –2 single dose",7.08 (1.16) (n = 2) h
same,tmax,"[2]; 200 mg, day –2 single dose","3.10 (1.03, 4.18) h"
same,AUC(0-inf),[2]; [6],3240 (820) (n = 2) ng·h/mL
same,AUC(0–24),[2]; [6],4730 (2730) ng·h/mL
same,"Ae, amount of drug dose excreted in urine",[2]; [6],2.05 (1.09) mg
same,CLR,[2]; [6],0.4 (0.14) L/h
same,"Cav,ss",[2]; [6],197 (114) ng/mL
same,Cmax,[2]; [6],1130 (1030) ng/mL
same,"fe, fraction of dose excreted in urine",[2]; [6],0.51 (0.27) %
same,t1/2,[2]; [6],4.16 (1.72) (n = 2) h
same,tmax,[2]; [6],"4.00 (0.5, 4.00) h"
same,AUC(0-inf),"[2]; 400 mg, day –2 single dose",4800 (3000) (n = 3) ng·h/mL
same,AUC(0-t),"[2]; 400 mg, day –2 single dose",4800 (2450) ng·h/mL
same,AUC(0–24),"[2]; 400 mg, day –2 single dose",4690 (2400) ng·h/mL
same,"Ae, amount of drug dose excreted in urine","[2]; 400 mg, day –2 single dose",2.77 (1.82) mg
same,CLR,"[2]; 400 mg, day –2 single dose",0.6 (0.34) L/h
same,Cmax,"[2]; 400 mg, day –2 single dose",999 (619) ng/mL
same,"fe, fraction of dose excreted in urine","[2]; 400 mg, day –2 single dose",0.69 (0.45) %
same,t1/2,"[2]; 400 mg, day –2 single dose",8.62 (0.54) (n = 3) h
same,tmax,"[2]; 400 mg, day –2 single dose","2.04 (1.03, 4.05) h"
same,AUC(0-inf),[2]; [7],9660 (4550) (n = 4) ng·h/mL
same,AUC(0–24),[2]; [7],7900 (4730) ng·h/mL
same,"Ae, amount of drug dose excreted in urine",[2]; [7],2.25 (1.28) mg
same,CLR,[2]; [7],0.3 (0.12) L/h
same,"Cav,ss",[2]; [7],329 (198) ng/mL
same,Cmax,[2]; [7],2230 (1570) ng/mL
same,"fe, fraction of dose excreted in urine",[2]; [7],0.38 (0.21) %
same,t1/2,[2]; [7],5.05 (1.76) (n = 4) h
same,tmax,[2]; [7],"1.14 (0.50, 4.05) h"
same,AUC(0-inf),"[2]; 600 mg, day –2 single dose","10,700 (5040) (n = 4) ng·h/mL"
same,AUC(0-t),"[2]; 600 mg, day –2 single dose",8120 (4990) ng·h/mL
same,AUC(0–24),"[2]; 600 mg, day –2 single dose",7930 (4990) ng·h/mL
same,"Ae, amount of drug dose excreted in urine","[2]; 600 mg, day –2 single dose",2.90 (0.51) mg
same,CLR,"[2]; 600 mg, day –2 single dose",5.0 (13.0) L/h
same,Cmax,"[2]; 600 mg, day –2 single dose",2250 (1330) ng/mL
same,"fe, fraction of dose excreted in urine","[2]; 600 mg, day –2 single dose",0.48 (0.09) %
same,t1/2,"[2]; 600 mg, day –2 single dose",7.17 (2.98) (n = 4) h
same,tmax,"[2]; 600 mg, day –2 single dose","2.12 (0.50, 24.3) h"
same,AUC(0-inf),[2]; [8],"12,000 (5910) (n = 4) ng·h/mL"
same,AUC(0–24),[2]; [8],"12,400 (5230) ng·h/mL"
same,"Ae, amount of drug dose excreted in urine",[2]; [8],4.70 (2.91) mg
same,CLR,[2]; [8],0.5 (0.34) L/h
same,"Cav,ss",[2]; [8],516 (218) ng/mL
same,Cmax,[2]; [8],4120 (2160) ng/mL
same,"fe, fraction of dose excreted in urine",[2]; [8],0.68 (0.47) %
same,t1/2,[2]; [8],6.44 (1.56) (n = 4) h
same,tmax,[2]; [8],"0.50 (0.0, 1.97) h"
same,AUC(0-inf),"[2]; 800 mg, day –2 single dose","12,900 (3350) (n = 4) ng·h/mL"
same,AUC(0-t),"[2]; 800 mg, day –2 single dose","11,500 (3370) ng·h/mL"
same,AUC(0–24),"[2]; 800 mg, day –2 single dose","11,300 (3230) ng·h/mL"
same,"Ae, amount of drug dose excreted in urine","[2]; 800 mg, day –2 single dose",4.00 (1.73) mg
same,CLR,"[2]; 800 mg, day –2 single dose",0.4 (0.12) L/h
same,Cmax,"[2]; 800 mg, day –2 single dose",4430 (2470) ng/mL
same,"fe, fraction of dose excreted in urine","[2]; 800 mg, day –2 single dose",0.50 (0.22) %
same,t1/2,"[2]; 800 mg, day –2 single dose",9.45 (2.42) (n = 4) h
same,tmax,"[2]; 800 mg, day –2 single dose","0.79 (0.50, 2.00) h"
same,Drug dose excreted unchanged in urine,[2]; across doses,Less than 1.5%
same,"Elimination half-life, t1/2",[2]; across doses,approximately 8 h
same,IC50,C3A,2540 nM
